Test results: PubChem BioAssay AID328 (DTP/NCI, 2004)
Values joined by “and” are separate entries in the source; they are usually repeats but may differ in a detail not shown here. Equal values may be shown once. Toxic doses and inconclusive results are not listed.

System: BDF1 mice, P388 leukemia ip, median survival T/C
Assay: NCI In Vivo Anticancer Drug Screen. Data for tumor model P388 Leukemia (intraperitoneal) in B6D2F1 (BDF1) mice
Details: endpoint: median survival time, higher = longer survival
How it was run: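 Each value expresses how treatment altered survival: treated-mouse outcome over vehicle-mouse outcome, both groups bearing the transplanted tumour.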

[1] = dose: 50.0 mg/kg/injection, schedule: Q01DX009 (ip), vehicle: saline
[2] = dose: 100.0 mg/kg/injection, schedule: Q01DX009 (ip), vehicle: saline
[3] = dose: 200.0 mg/kg/injection, schedule: Q01DX009 (ip), vehicle: saline
[4] = dose: 50.0 mg/kg/injection, schedule: Q01DX009 (ip), vehicle: saline with Tween-80
[5] = dose: 100.0 mg/kg/injection, schedule: Q01DX009 (ip), vehicle: saline with Tween-80
[6] = dose: 50.0 mg/kg/injection, schedule: Q04DX003 (ip), vehicle: saline
[7] = dose: 100.0 mg/kg/injection, schedule: Q04DX003 (ip), vehicle: saline
[8] = dose: 200.0 mg/kg/injection, schedule: Q04DX003 (ip), vehicle: saline

With `O=C(NO)c1cc(O)c(O)c(O)c1` the T/C (dose: 50.0 mg/kg/injection, schedule: Q01DX005 (ip), vehicle: distilled water + Tween-80) was 123 % of control, the T/C (dose: 200.0 mg/kg/injection, schedule: Q01DX005 (ip), vehicle: distilled water + Tween-80) was 150 % of control and the T/C (dose: 400.0 mg/kg/injection, schedule: Q01DX005 (ip), vehicle: distilled water + Tween-80) was 153 % of control.
`C=C1C(=O)O[C@H]2C/C(C)=C/CC/C(CO)=C/[C@@H](O)[C@H]12` was tested, and the T/C (dose: 5.5 mg/kg/injection, schedule: Q01DX009 (ip), vehicle: alcohol) was 110 % of control, the T/C (dose: 33.0 mg/kg/injection, schedule: Q01DX009 (ip), vehicle: alcohol) was 120 % of control and the T/C (dose: 50.0 mg/kg/injection, schedule: Q01DX009 (ip), vehicle: alcohol) was 95 % of control.
`O=C(O)C1=CC(O)C(O)C(O)C1` (centres undefined) was tested, and the T/C [1] was 87 % of control, the T/C [2] was 100 % of control and the T/C (dose: 100.0 mg/kg/injection, schedule: Q04DX003 (ip), vehicle: saline sonified) was 100 % of control. The T/C [3] was 91 % of control, the T/C (dose: 200.0 mg/kg/injection, schedule: Q04DX003 (ip), vehicle: saline sonified) was 100 % of control and the T/C (dose: 400.0 mg/kg/injection, schedule: Q04DX003 (ip), vehicle: saline sonified) was 100 % of control.
`NC(=S)N/N=C/c1ccc(NC(=O)c2ccccc2C(=O)O)cc1` was tested, and the T/C (dose: 25.0 mg/kg/injection, schedule: Q01DX009 (ip), vehicle: saline with Tween-80) was 95 % of control, the T/C [4] was 87 % of control and the T/C [5] was 100 % of control.
With `CCCCNC1=CC(=O)CC(C)(C)C1` the T/C [1] was 105 % of control, the T/C [2] was 111 % of control and the T/C [3] was 107 % of control.
`CC(=O)NC(Cc1ccc(N(CCCl)CCCl)cc1)C(=O)O` (centres undefined) was tested, and the T/C (dose: 1.56 mg/kg/injection, schedule: Q01DX009 (ip), vehicle: water) was 110 % of control, the T/C (dose: 3.12 mg/kg/injection, schedule: Q01DX009 (ip), vehicle: water) was 123 % of control and the T/C (dose: 6.25 mg/kg/injection, schedule: Q01DX009 (ip), vehicle: water) was 118 % of control. For the same molecule, the T/C (dose: 12.5 mg/kg/injection, schedule: Q04DX003 (ip), vehicle: water) was 172 % of control, the T/C (dose: 25.0 mg/kg/injection, schedule: Q01DX009 (ip), vehicle: water) was 203 % of control and the T/C (dose: 25.0 mg/kg/injection, schedule: Q04DX003 (ip), vehicle: water) was 164 % of control and 200 % of control. The T/C (dose: 50.0 mg/kg/injection, schedule: Q01DX009 (ip), vehicle: water) was 248 % of control, the T/C (dose: 50.0 mg/kg/injection, schedule: Q04DX003 (ip), vehicle: water) was 245 % of control and 200 % of control and the T/C (dose: 100.0 mg/kg/injection, schedule: Q04DX003 (ip), vehicle: water) was 194 % of control.
In the case of `CC(=O)N(O)CCCCCNC(=O)CCC(=O)N(O)CCCCCNC(=O)CCC(=O)N(O)CCCCCN`, the T/C [4] is reported as 101 % of control and the T/C [5] is reported as 102 % of control.
With `Cc1c[n+]([O-])ccc1[N+](=O)[O-]` the T/C (dose: 25.0 mg/kg/injection, schedule: Q01DX009 (ip), vehicle: saline) was 100 % of control, the T/C [1] was 104 % of control and the T/C [6] was 100 % of control. For the same molecule, the T/C [7] was 90 % of control and 95 % of control, the T/C (dose: 150.0 mg/kg/injection, schedule: Q04DX003 (ip), vehicle: saline) was 100 % of control and the T/C [8] was 86 % of control.
`C(=NC12CC3CC(CC(C3)C1)C2)c1ccccc1` was tested, and the T/C (dose: 25.0 mg/kg/injection, schedule: Q04DX003 (ip), vehicle: saline) was 105 % of control, the T/C [6] was 99 % of control and the T/C [7] was 107 % of control. The T/C [8] was 105 % of control.
